Consider 23 molecules from patent publication US7495104B2, “Quinoline or quinazoline derivatives inhibiting auto-phosphorylation of fibroblast growth factor receptors” (Kirin Beer Kabushiki Kaisha, priority 2001, dated 2009).

Structures can show the parent of a compound that is named as a salt.

In the assay the target is Bek (Homo sapiens, UniProt P21802). The assay is described as follows: Inhibitory activity against Bek-autophosphorylation using ELISA method in OCUM-2MD3 cells. Type of assay: cell-based. As to conditions: 1 hr with compound, read-out: IC50 (concentration necessary for inhibiting 50% of Bek-phosphorylation). The procedure, abridged: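 OCUM-2MD3 human scirrhous gastric cancer cells in 0.1% FCS were exposed to compound for 1 hr at 37° C, then lysed. Phospho-tyrosine proteins were captured with anti-phosphotyrosine antibody, probed with anti-Bek antibody and peroxidase read-out (A450). Positive control (1000 nM) set 0%, untreated 100%; IC50 from multi-level dilutions.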
Bek, sequence (P21802 431-767 limits assumed): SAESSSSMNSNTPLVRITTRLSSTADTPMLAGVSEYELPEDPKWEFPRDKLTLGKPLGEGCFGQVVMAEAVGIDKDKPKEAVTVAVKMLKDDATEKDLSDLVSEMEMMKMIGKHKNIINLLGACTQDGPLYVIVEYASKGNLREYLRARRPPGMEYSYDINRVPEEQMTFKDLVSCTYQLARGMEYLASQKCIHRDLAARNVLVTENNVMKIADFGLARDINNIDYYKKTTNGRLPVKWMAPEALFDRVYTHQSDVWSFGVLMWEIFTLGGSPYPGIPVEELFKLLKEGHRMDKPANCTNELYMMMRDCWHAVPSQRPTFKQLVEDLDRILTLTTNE
Regarding `COc1cc2c(Oc3ccc(Nc4ccc(C(C)(C)C)cc4)cc3)ccnc2cc1OCCCN1C[C@@H](C)O[C@@H](C)C1` [Compound 69, (4-Tert-butylphenyl)-(4-{7-[3-(2,6-dimethylmorpholin-4-yl)propoxy]-6-methoxyquinolin-4-yloxy}phenyl)amine], the IC50 came to 248 nM.

With `COc1cc2c(Oc3ccc(NC(=O)NCCC(C)(C)C)c(Cl)c3)ccnc2cc1OCCCN1CCC(O)CC1` [Compound 268, 1-(2-Chloro-4-{7-[3-(4-hydroxy-piperidin-1-yl)-propoxy]-6-methoxy-quinolin-4-yloxy}-phenyl)-3-(3,3-dimethyl-butyl)-urea], the IC50 was 15.7 nM.

Turning to `COc1cc2c(Oc3ccc(NC(=O)NCCC(C)(C)C)cc3)ccnc2cc1OCCN1CC(C)CC(C)C1` (centres unmarked) [Compound 120, 1-(3,3-Dimethyl-butyl)-3-(4-{7-[2-(3,5-dimethyl-piperidin-1-yl)-ethoxy]-6-methoxy-quinolin-4-yloxy}-phenyl)-urea], the IC50 stood at 21 nM.

Regarding `COc1cc2c(Oc3ccc(Nc4ccc(C(C)(C)C)cc4)cc3)ccnc2cc1OCc1csc(C)n1` [Compound 28, (4-Tert-butylphenyl)-{4-[6-methoxy-7-(2-methylthiazol-4-ylmethoxy)quinolin-4-yloxy]phenyl}amine], the IC50 came to 2400 nM.

On to `CCCN1CCC(COc2cc3nccc(Oc4ccc(Nc5ccc(C(C)(C)C)cc5)cc4)c3cc2OC)CC1` [Compound 42, (4-Tert-butylphenyl)-{4-[6-methoxy-7-(1-propylpiperidin-4-ylmethoxy)quinolin-4-yloxy]phenyl}amine], for which the IC50 came to 399 nM.

On to `COc1cc2c(Oc3ccc(NC(=O)NCCC(C)(C)C)cc3)ccnc2cc1OCCCN1CCOCC1` [Compound 155, 1-(3,3-Dimethyl-butyl)-3-{4-[6-methoxy-7-(3-morpholin-4-yl-propoxy)-quinolin-4-yloxy]-phenyl}-urea hydrochloride], for which the IC50 came to 28.7 nM.

In the case of `COc1cc2nccc(Oc3ccc(Nc4ccc(C(C)(C)C)cc4)cc3)c2cc1OC` [Compound 5, (4-Tert-butylphenyl)-[4-(6,7-dimethoxyquinolin-4-yloxy)phenyl]amine], the IC50 was determined as 321 nM.

In the case of `COc1cc2nccc(Oc3ccc(Nc4nc(C)c(C)s4)cc3)c2cc1OC` [Compound 75, [4-(6,7-Dimethoxyquinolin-4-yloxy)phenyl]-(4,5-dimethylthiazol-2-yl)amine], the IC50 turned out to be 5190 nM.

Turning to `COc1cc2c(Oc3ccc(Nc4ccc(C(C)(C)C)cc4)cc3)ccnc2cc1OCCN1CCC(O)CC1` [Compound 82, 1-(2-{4-[4-(4-Tert-butylphenylamino)phenoxy]-6-methoxy-quinolin-7-yloxy}ethyl)piperidin-4-ol], the IC50 came to 70.1 nM.

As for `COc1cc2c(Oc3ccc(NC(=O)NCCC(C)(C)C)cc3F)ccnc2cc1OCCCN1CCC(CO)CC1` [Compound 285, 1-(3,3-Dimethyl-butyl)-3-(3-fluoro-4-{7-[3-(4-hydroxymethyl-piperidin-1-yl)-propoxy]-6-methoxy-quinolin-4-yloxy}-phenyl)-urea], the IC50 is 22.8 nM.

Consider `COc1cc2c(Oc3ccc(Nc4ccc(C(C)(C)C)cc4)cc3)ccnc2cc1OCCNC(C)CO` (centres unmarked) [Compound 353, 2-(2-{4-[4-(4-Tert-butyl-phenylamino)-phenoxy]-6-methoxy-quinolin-7-yloxy}-ethylamino)-propan-1-ol], for which the IC50 was determined as 374 nM.

For `COc1cc2ncnc(Oc3ccc(Nc4ccc(C(C)(C)C)cc4)cc3)c2cc1OC` [Compound 74, (4-Tert-butylphenyl)-[4-(6,7-dimethoxyquinazolin-4-yloxy)-phenyl]amine], the IC50 worked out at 521 nM.

As to `COc1cc2c(Oc3ccc(NC(=O)NCCC(C)(C)C)cc3F)ccnc2cc1OCCN1CCC(O)CC1` [Compound 296, 1-(3,3-Dimethyl-butyl)-3-(3-fluoro-4-{7-[2-(4-hydroxy-piperidin-1-yl)-ethoxy]-6-methoxy-quinolin-4-yloxy}-phenyl)-urea], the IC50 stood at 19.8 nM.

On to `COc1cc2c(Oc3ccc(Nc4ccc(C(C)(C)C)cc4)cc3)ccnc2cc1OCCN1CCC(N2CCCC2)CC1` [Compound 243, (4-Tert-butyl-phenyl)-(4-{6-methoxy-7-[2-(4-pyrrolidin-1-yl-piperidin-1-yl)-ethoxy]-quinolin-4-yloxy}-phenyl)-amine], for which the IC50 came to 342 nM.

As to `COc1cc2c(Oc3ccc(NC(=O)NCCC(C)(C)C)c(Cl)c3)ccnc2cc1OCCCN1CCCN(C)CC1` [Compound 188, 1-(2-Chloro-4-{6-methoxy-7-[3-(4-methyl-[1,4]diazepan-1-yl)-propoxy]-quinolin-4-yloxy}-phenyl)-3-(3,3-dimethyl-butyl)-urea], the IC50 amounted to 29.9 nM.

As to `CCCN(CCO)CCOc1cc2nccc(Oc3ccc(NC(=O)NCCC(C)(C)C)cc3)c2cc1OC` [Compound 369, 1-(3,3-Dimethyl-butyl)-3-[4-(7-{2-[(2-hydroxy-ethyl)-propyl-amino]-ethoxy}-6-methoxy-quinolin-4-yloxy)-phenyl]-urea], the IC50 was found to be 42.3 nM.

With `COc1cc2c(Oc3ccc(NC(=O)NCCC(C)(C)C)cc3)ccnc2cc1OCCCN1CCC(N2CCCCC2)CC1` [Compound 248, 1-{4-[7-(3-[1,4′]Bipiperidinyl-1′-yl-propoxy)-6-methoxy-quinolin-4-yloxy]-phenyl}-3-(3,3-dimethyl-butyl)-urea], the IC50 amounted to 12.6 nM.

As to `COc1cc2nccc(Oc3ccc(Nc4ccc(C(C)(C)C)cc4)c(C)c3)c2cc1OC` [Compound 13, (4-Tert-butylphenyl)-[4-(6,7-dimethoxyquinolin-4-yloxy)-2-methylphenyl]amine], the IC50 worked out at 279 nM.

Consider `COc1cc2c(Oc3ccc(NC(=O)NCCC(C)(C)C)cc3)ccnc2cc1OCCCN1CCC[C@H]1CO` [Compound 263, 1-(3,3-Dimethyl-butyl)-3-(4-{7-[3-(2-hydroxymethyl-pyrrolidin-1-yl)-propoxy]-6-methoxy-quinolin-4-yloxy}-phenyl)-urea], for which the IC50 is less than 10 nM.

Consider `COc1cc2c(Oc3ccc(NC(=O)NCCC(C)(C)C)c(Cl)c3)ccnc2cc1OCCCCN1CC(C)OC(C)C1` (centres unmarked) [Compound 321, 1-(2-Chloro-4-{7-[4-(2,6-dimethyl-morpholin-4-yl)-butoxy]-6-methoxy-quinolin-4-yloxy}-phenyl)-3-(3,3-dimethyl-butyl)-urea], for which the IC50 was found to be 25.4 nM.

For the molecule `COc1cc2c(Oc3ccc(NC(=O)NCCC(C)(C)C)c(Cl)c3)ccnc2cc1OCC(O)CN1CCOCC1` (centres unmarked) [Compound 195, 1-{2-Chloro-4-[7-(2-hydroxy-3-morpholin-4-yl-propoxy)-6-methoxy-quinolin-4-yloxy]-phenyl}-3-(3,3-dimethyl-butyl)-urea], the IC50 was less than 10 nM.

For the molecule `COc1cc2c(Oc3ccc(Nc4ccc(C(C)(C)C)cc4)cc3)ccnc2cc1OCC(O)CN1CCC(N2CCCCC2)CC1` (centres unmarked) [Compound 258, 1-[1,4′]Bipiperidineyl-1′-yl-3-{4-[4-(4-tert-butyl-phenylamino)-phenoxy]-6-methoxy-quinolin-7-yloxy}-propan-2-ol], the IC50 was determined as 110 nM.

Regarding `COc1cc2c(Oc3ccc(NC(=O)NCCC(C)(C)C)c(Cl)c3)ccnc2cc1OCCC1CCNCC1` [Compound 202, 1-{2-Chloro-4-[6-methoxy-7-(2-piperidin-4-yl-ethoxy)-quinolin-4-yloxy]-phenyl}-3-(3,3-dimethyl-butyl)-urea], the IC50 was found to be 28.5 nM.
